Assay results reported in a melting point compilation (Tetko et al.).

melting point [°C]	SMILES
133	CCOc1cccc(/C=C/C(=O)O)c1
131 to 136	CC(C)(C)OC(=O)NC(Cc1ccccc1)C(=O)NN (configuration not stated)
220 to 222	CCOC(=O)c1[nH]c(C)c(CO)c1C
62	Brc1ccc(OCc2ccccc2)cc1
135	c1ccc(-c2oc(-c3ccccc3)c3ccccc23)cc1
295	NC(Cc1ccc(O)c(O)c1)C(=O)O (configuration not stated)
118	Cc1ccc(S(=O)(=O)Oc2c(C(=O)c3ccc(Cl)cc3Cl)c(C)nn2C)cc1
67 to 71	O=C(OCc1ccccc1)N1c2ccccc2CC1CO (configuration not stated)
141	O/N=C(/CC(NO)c1ccccc1)c1ccccc1 (configuration not stated)
155 to 156	N#CC(=CNNc1ccccc1)c1ccccc1
62	COC(=O)c1sccc1OC
184 to 187	O=C(O)/C=C/c1c[nH]c2ccccc12
82	O=C1CCC(NC(=O)OCc2ccccc2)CC1
230	O=C(O)c1ccc(-c2csnn2)cc1
169	O=C1/C(=C/c2ccc([N+](=O)[O-])cc2)SC(=S)N1CN1CCOCC1
114 to 115	CCCCCCCCCCOc1ccc(/C=N/c2ccc(/C=C/C(=O)OCC)cc2)cc1
257 to 259	c1ccc(Nc2nc3ccccc3[nH]2)nc1
15.8	C=CCc1ccc(O)cc1
126	Cc1ccc(C=NO)cc1
185 to 186	COc1ccccc1NC(=S)c1cc(C(C)(C)C)c(O)c(C(C)(C)C)c1
68 to 70	COC(=O)[C@H](CCC(=O)O)NC(=O)OCc1ccccc1
204	C/C(=N\NC(N)=O)c1ccc(C)cc1
136	CC(=O)Oc1ccc(C(=C2CCCCC2)c2ccc(OC(C)=O)cc2)cc1
143 to 147	CC(C)[C@H](NC(=O)OCC1c2ccccc2-c2ccccc21)C(=O)O
250 to 252	COc1ccc(C(=O)Cn2cc([N+](=O)[O-])nc2C)cc1

melting point [°C]	SMILES
238	Cn1c(=O)c(C2=NNC(=O)C2=CC=Cc2ccccc2)c(O)c2ccccc21
143 to 144	Clc1ccc2c(c1)c1cc(Cl)ccc1n2CC1CO1 (configuration not stated)
104	OC(CCCN1CCCCC1)(c1ccccc1)c1ccccc1
47 to 48	Brc1ccc2sccc2c1
199	O=C(O)c1ccccc1/N=N/C1SC(=S)N(c2ccccc2)C1=O (configuration not stated)
146	COc1ccc(C(=O)c2ccccc2C(=O)O)cc1
75	CC(=O)N(C(C)=O)c1ccc(N=Nc2ccccc2C)cc1C
147 to 148	N#CCc1nc(-c2ccc([N+](=O)[O-])cc2)cs1
54 to 59	CCOc1ccc(CO)cc1OC
200	CCOC(=O)c1c(NS(=O)(=O)c2ccc(Cl)cc2)nn(-c2ccc([N+](=O)[O-])cc2)c1N
62	Ic1ccc(OCc2ccccc2)cc1
180	O=C1OC(c2ccccc2)=NC1=Cc1ccc(Cl)cc1Cl
84	O=Cc1cc(F)ccc1O
131 to 134	COc1ccc(C(=O)C(=O)c2ccc(OC)cc2)cc1
180	c1ccc2sc(SSc3nc4ccccc4s3)nc2c1
172	CC(C)Oc1ccc(C(=O)NS(=O)(=O)c2ccc(N)cc2)cc1
147 to 149	O=Cc1ccc(-n2cncn2)cc1
141	O=C1C=C(NCCc2ccccc2)C(=O)c2ccccc21
206 to 210	COc1cc(N)c(Cl)cc1C(=O)O
39 to 40	Nc1ccc(C(F)(F)F)nc1
300	Cc1ccncc1S(=O)(=O)O
153 to 154	CC(=O)C(=Cc1ccc(-c2cccc([N+](=O)[O-])c2)o1)C(C)=O
230	Cc1nc(/C(C#N)=C/c2ccc(O)cc2)sc1/N=N/c1ccc(Cl)cc1
46 to 48	Cc1onc(-c2ccccc2)c1C(=O)CBr
112	OCc1ccc(-c2cccs2)cc1

melting point [°C]	SMILES
239	CC12CCC3C(=CCc4cc(O)ccc43)C1CCC2=O (configuration not stated)
159	COc1cc([N+](=O)[O-])c2ncccc2c1
60	ClC1(c2ccccc2)Cc2ccccc21 (configuration not stated)
239	COC(=O)NN=Cc1c[n+]([O-])c2ccccc2[n+]1[O-]
132	COc1ccc(N=[N+]([O-])c2ccc(OC)cc2)cc1
72 to 73	O=C1c2ccccc2C(=O)N1CCOCCCl
214 to 217	COc1cc2c(cc1OC)C(C#N)N(C(=O)c1ccccc1)CC2 (configuration not stated)
105 to 106	ON=Cc1sccc1Oc1ccccc1
199 to 204	Clc1cccc2c(C#Cc3ccccc3)c3ccccc3c(C#Cc3ccccc3)c12
158 to 160	CC1(C)c2ccccc2N(Cc2ccccc2)C12C=Cc1cc([N+](=O)[O-])ccc1O2 (configuration not stated)
151	COc1ccc(-c2csc(/C(C#N)=N\Nc3ccc(C)cc3)n2)cc1
40 to 42	CSc1ccc(I)cc1
28	Nc1ccc2c(c1)OCCO2
157 to 161	CSCCC(NC(=O)c1cccnc1SC)C(=O)O (configuration not stated)
174 to 175	Nc1[nH]ncc1-c1ccc(F)cc1
48	COc1ccc(N=C=S)cc1OC
246 to 248	O=C1c2ccc(C(Br)Br)c([N+](=O)[O-])c2C(=O)c2c(Cl)c(Cl)c(Cl)c(Cl)c21
216	N=C(N)c1ccc(Oc2ccc(C(=N)N)cc2)cc1
272	CC(=O)Nc1cccc(N=Nc2cccc(NC(C)=O)c2)c1
100	OCCN1CCN(CCCN2c3ccccc3C=Cc3ccccc32)CC1
256	Cc1n[nH]c(C)c1-c1ccccc1C(=O)O
124	Cc1ccn2c(=O)c3ccccc3cc2c1
110	N#Cc1c(NC(=O)c2ccccc2)sc2c1CCCC2
49	CC(=O)c1ccc(Cl)s1
173	COc1cc(/C=C/C(=O)O)ccc1O

Further lines, the compound ahead of its results:

SMILES	melting point [°C]
O=Cc1cc2cccnc2s1	142 to 143
C=C(C)C(=O)OCCN(C)C	-30
C=COCC(C)C	-112
Cc1nn(C)c2sc(C(=O)Cl)cc12	165 to 167
CNC(C)=CC(=O)OC	62 to 68
Brc1cccc(N2CCOCC2)n1	50 to 51
O=C=Nc1cccc(Cl)c1	-4
CCN(CC)C(=O)C(Cl)=C(C)OP(=O)(OC)OC	-45
C[C@]1(O)C#CCCCCCC#C[C@@](C)(O)CC1	100
N#CCc1ccccc1CC#N	59
FC(F)(F)c1nc2c(Cl)c(Cl)ccc2[nH]1	214
Fc1ccc(-c2ccc(F)cc2)cc1	94.5
CC(O)C(C)C(N)C(=O)O (configuration not stated)	200
CNC(=O)Oc1cccc(C(C)C)c1	73
COC(=O)C1CCC(C)(C(C)(C)O)OC1(C)C (configuration not stated)	139
CCCCCCCCCC(=O)CCCCCC	37
COC(=O)CC#N	-13
O=C(O)c1cc(Cl)sc1Cl	148
Fc1c(F)c(Cl)c(F)c(F)c1S	47 to 52

SMILES	melting point [°C]
CC1(C)CC2(CC(C)(C)c3cc(O)c(O)cc32)c2cc(O)c(O)cc21	300
Cc1cc(C)c(Cc2c(C)cc(C)cc2C)c(C)c1	130
N#Cc1c(F)cc(F)cc1F	57 to 61
CC(C=CC=C(C)C=CC1=C(C)CCCC1(C)C)=CC=CC=C(C)C=CC=C(C)C=CC1=C(C)CC(O)CC1(C)C (configuration not stated)	160
O=S1(=O)CCN(Cc2cccs2)CC1	126 to 128
COC(=O)c1ccc(N2N=N2)cc1	40
O=C(O)c1cc(I)cc(I)c1I	223 to 228
Cc1cc(C)c([N+](=O)[O-])c(C)c1[N+](=O)[O-]	85.3
N#Cc1c[nH]cc1-c1cccc(Cl)c1Cl	150
Nc1oncc1-c1ccccn1	133 to 136
O=C(O)C1C2CC3(OCCO3)C1CC2Cl (configuration not stated)	164 to 166
O=C1C=C2C(=CCOC2O)O1 (configuration not stated)	111
Clc1ccc(CBr)cc1	49
CCC(C)CCCCO (configuration not stated)	-104
OC1CCCCCCC1	25.1
O=C(CI)OC(=O)CI	43 to 49
O=C(Cl)c1ccc(Cl)nc1	50
Oc1ncnc2[nH]cnc12	250
Clc1cc(Cl)c(Cl)c(I)c1	52

SMILES	melting point [°C]
O=S(=O)(Cl)c1c(Cl)nc2sccn12	137 to 139
O=Cc1csnn1	85 to 87
CC(=O)N1C(=O)Cc2cc3c(cc21)N(C(C)=O)C(=O)C3	295
CC(C)(OO)c1ccccc1	-9
C#CC1(O)CCC2(C)C(CCC3C2CCC2(C)C3CCC23OCCO3)C1 (configuration not stated)	203 to 209
NC(=O)OCCCl	75.5
C=CCNC(N)=O	85
O=C(Br)c1ccccc1	-24
OC1CC2CCC1C2 (configuration not stated)	149
CCCCCCCCCCCC(C)=O	30.5
ClC1CC2CCC1C2 (configuration not stated)	-5
O=[N+]([O-])OC1COC2C(O)COC12 (configuration not stated)	88 to 93
O=C(O)C1C(C(=O)O)C2(Cl)C(Cl)=C(Cl)C1(Cl)C2(Cl)Cl (configuration not stated)	209
Nc1ccc(Cl)nn1	210 to 211
NC(CP(=O)(O)O)C(=O)O (configuration not stated)	227 to 229
CCC1NC(C(=O)O)CS1 (mixture of isomers)	158 to 162
C=C=CC	-136
CCOC(=O)CC(/C=C1\C(=O)C2(C)CCC1C2(C)C)(/C=C1\C(=O)C2(C)CCC1C2(C)C)C(=O)OCC (configuration not stated)	105
CC(=O)NC1CCSC1=O (racemic)	110
